Data: patent US8362018B2, “Substituted imidazo[1,2-a]pyrazine compounds useful for the treatment of viral infections” (Biofocus DPI, Ltd., priority 2007, dated 2013)

Tests used:
HCV replicon = assay: anti-viral assay (EC50), Table 13; assay type: cell-based; conditions: Hepatitis C virus, anti-viral assays
Text: The ability of a compound to inhibit HCV replication can be measured in vitro or using animal models using models and assays well known to those of skill in the art (e.g. Pietschmann et al, Clin Liver Dis. 7(1)c23-43, 2003). In vitro techniques for measuring the ability of a compound to inhibit HCV replication involve using HCV or an HCV replicon. Because HCV is difficult to grow in culture, particular in vitro techniques employ an HCV replicon.
An HCV replicon is an RNA molecule able to autonomously replicate in a cultured cell, such as Huh7. The HCV replicon expresses the HCV derived components of the replication machinery and contains cis-elements required for replication in a cultured cell. […]

[1] = cytotoxicity measurement (CC50), Table 13; assay type: cell-based; conditions: human, Huh7 cells

Oc1ccc(-c2cnc3c(NCCc4ccncc4)nccn23)cc1 [Compound 2]
EC50 (HCV replicon): 1 to 20 µM | CC50 [1]: < 35 µM

OCc1ccc(-c2cnc3c(NCCc4ccncc4)nccn23)cc1 [Compound 3]
EC50 (HCV replicon): > 20 µM | CC50 [1]: > 35 µM

CS(=O)(=O)Nc1cccc(-c2cnc3c(NCCc4ccncc4)nccn23)c1 [Compound 4]
EC50 (HCV replicon): 1 to 20 µM | CC50 [1]: > 35 µM

Oc1ccc(-c2cnc3c(NCc4ccncc4)nccn23)cc1 [Compound 5]
EC50 (HCV replicon): 1 to 20 µM | CC50 [1]: > 35 µM

Oc1cccc(-c2cnc3c(NCc4ccncc4)nccn23)c1 [Compound 6]
EC50 (HCV replicon): 1 to 20 µM | CC50 [1]: > 35 µM

COc1ccc(-c2cnc3c(NCc4cccnc4)nccn23)cc1OC [Compound 7]
EC50 (HCV replicon): 1 to 20 µM | CC50 [1]: > 35 µM

NS(=O)(=O)c1ccc(CNc2nccn3c(-c4ccc5c(c4)OCO5)cnc23)cc1 [Compound 8]
EC50 (HCV replicon): 1 to 20 µM | CC50 [1]: < 35 µM

COc1ccc(-c2cnc3c(NCc4ccc(S(N)(=O)=O)cc4)nccn23)cc1OC [Compound 9]
EC50 (HCV replicon): < 1 µM | CC50 [1]: > 35 µM

NS(=O)(=O)c1ccc(CNc2nccn3c(-c4ccc(F)c(Cl)c4)cnc23)cc1 [Compound 10]
EC50 (HCV replicon): 1 to 20 µM | CC50 [1]: > 35 µM

NS(=O)(=O)c1ccc(CNc2nccn3c(-c4ccc(F)cc4)cnc23)cc1 [Compound 11]
EC50 (HCV replicon): 1 to 20 µM | CC50 [1]: > 35 µM

COc1cccc(-c2cnc3c(NCc4ccc(S(N)(=O)=O)cc4)nccn23)c1 [Compound 12]
EC50 (HCV replicon): 1 to 20 µM | CC50 [1]: > 35 µM

COC(=O)c1ccc(CNc2nccn3c(-c4ccc(OC)c(OC)c4)cnc23)cc1 [Compound 13]
EC50 (HCV replicon): 1 to 20 µM | CC50 [1]: < 35 µM

COc1ccc(-c2cnc3c(NCc4ccccc4)nccn23)cc1OC [Compound 14]
EC50 (HCV replicon): 1 to 20 µM | CC50 [1]: > 35 µM

NS(=O)(=O)c1ccc(CNc2nccn3c(-c4ccc(OC(F)(F)F)cc4)cnc23)cc1 [Compound 15]
EC50 (HCV replicon): > 20 µM | CC50 [1]: > 35 µM

COc1ccc(-c2cnc3c(NCc4ccc(S(N)(=O)=O)cc4)nccn23)cc1 [Compound 16]
EC50 (HCV replicon): 1 to 20 µM | CC50 [1]: > 35 µM

COc1ccc(-c2cnc3c(NCCc4ccc(S(N)(=O)=O)cc4)nccn23)cc1OC [Compound 17]
EC50 (HCV replicon): 1 to 20 µM | CC50 [1]: < 35 µM

CC(=O)c1cccc(-c2cnc3c(NCc4ccc(S(N)(=O)=O)cc4)nccn23)c1 [Compound 18]
EC50 (HCV replicon): 1 to 20 µM | CC50 [1]: > 35 µM

COc1ccc(-c2cnc3c(NCc4ccc(S(C)(=O)=O)cc4)nccn23)cc1OC [Compound 19]
EC50 (HCV replicon): 1 to 20 µM | CC50 [1]: > 35 µM

COc1cc(-c2cnc3c(NCc4ccc(S(N)(=O)=O)cc4)nccn23)ccc1O [Compound 20]
EC50 (HCV replicon): < 1 µM | CC50 [1]: < 35 µM

COc1ccc(-c2cnc3c(NCc4ccc(NS(C)(=O)=O)cc4)nccn23)cc1OC [Compound 22]
EC50 (HCV replicon): 1 to 20 µM | CC50 [1]: > 35 µM

COc1ccc(-c2cnc3c(NCc4cnccn4)nccn23)cc1OC [Compound 23]
EC50 (HCV replicon): 1 to 20 µM | CC50 [1]: > 35 µM

Oc1ccc(-c2cnc3c(NCc4ccccc4)nccn23)cc1 [Compound 24]
EC50 (HCV replicon): 1 to 20 µM | CC50 [1]: < 35 µM

NS(=O)(=O)c1ccc(CNc2nccn3c(-c4ccc(O)c(F)c4)cnc23)cc1 [Compound 25]
EC50 (HCV replicon): < 1 µM | CC50 [1]: > 35 µM

COc1ccc(-c2cnc3c(NCCNC(C)=O)nccn23)cc1OC [Compound 26]
EC50 (HCV replicon): 1 to 20 µM | CC50 [1]: > 35 µM

CC(=O)Nc1ccc(-c2cnc3c(NCc4ccc(S(N)(=O)=O)cc4)nccn23)cc1 [Compound 27]
EC50 (HCV replicon): 1 to 20 µM | CC50 [1]: > 35 µM

CS(=O)(=O)Nc1ccc(-c2cnc3c(NCc4ccc(S(N)(=O)=O)cc4)nccn23)cc1 [Compound 28]
EC50 (HCV replicon): > 20 µM | CC50 [1]: > 35 µM

COc1ccc(-c2cnc3c(NCC4CCOCC4)nccn23)cc1OC [Compound 29]
EC50 (HCV replicon): 1 to 20 µM | CC50 [1]: < 35 µM

COc1ccc(-c2cnc3c(NCCCn4ccnc4)nccn23)cc1OC [Compound 30]
EC50 (HCV replicon): > 20 µM | CC50 [1]: > 35 µM

COc1cc(-c2cnc3c(NCc4ccc(S(N)(=O)=O)cc4)nccn23)cc(Cl)c1O [Compound 31]
EC50 (HCV replicon): 1 to 20 µM | CC50 [1]: > 35 µM

CS(=O)(=O)c1ccc(CNc2nccn3c(-c4ccc(O)cc4)cnc23)cc1 [Compound 32]
EC50 (HCV replicon): 1 to 20 µM | CC50 [1]: > 35 µM

Cc1cc(O)ccc1-c1cnc2c(NCc3ccc(S(N)(=O)=O)cc3)nccn12 [Compound 33]
EC50 (HCV replicon): 1 to 20 µM | CC50 [1]: > 35 µM

Oc1ccc(-c2cnc3c(NCc4ccc(Cl)cc4)nccn23)cc1 [Compound 34]
EC50 (HCV replicon): 1 to 20 µM | CC50 [1]: < 35 µM

Cc1cccc(CNc2nccn3c(-c4ccc(O)cc4)cnc23)c1 [Compound 35]
EC50 (HCV replicon): 1 to 20 µM | CC50 [1]: < 35 µM

Cc1ccccc1CNc1nccn2c(-c3ccc(O)cc3)cnc12 [Compound 36]
EC50 (HCV replicon): 1 to 20 µM | CC50 [1]: < 35 µM
